# Literature values, collected in US20090215676A1, “Method of treatment” (priority 2005, published 2009).
# Read-outs that look alike come from different tables or passages of the source.
# How the values were obtained:
# GH and IGF-1 levels = settings: for acromegalic patients in whom GH and IGF-1 levels are reduced: human, in vivo; for share of responding patients whose GH and IGF-1 levels are reduced to normal levels (full responders): of the approximately 90% who respond
# insulin sensitivity = settings: in vivo
# IGF-I levels = settings: for daily pegvisomant dose needed: former pegvisomant registration studies
# IGF-I [1] = settings: alternate day administration, monotherapy; of 10 patients
# IGF-I [2] = settings: once weekly pegvisomant dose of 80 mg, monotherapy
Compound,acromegalic patients in whom GH and IGF-1 levels are reduced (GH and IGF-1 levels),share of responding patients whose GH and IGF-1 levels are reduced to normal levels (full responders) (GH and IGF-1 levels),effect on insulin sensitivity (insulin sensitivity),daily pegvisomant dose needed (IGF-I levels; one subject) [mg],daily dose needed by the average patient (IGF-I levels; pegvisomant monotherapy),"acromegalics with IGF-I levels normalized (IGF-I levels; pegvisomant monotherapy, listed as PEGVISOMANT)","acromegalics with IGF-I levels normalized (IGF-I levels; pegvisomant monotherapy, listed as Pegvisomant) [%]",daily pegvisomant dose needed (IGF-I levels; two subjects) [mg],patients in whom the regimen failed to maintain IGF-I within the age-adjusted normal range (IGF-I [1]) [patients],effect on tumor growth (tumor size; clinical experience),effect on mean tumor size (tumor size; follow-up with pegvisomant monotherapy to date),share of patients with IGF-I normalized (IGF-I [2])
CC(C)[C@@H]1NC(=O)[C@H](CCCCN)NC(=O)[C@@H](Cc2c[nH]c3ccccc23)NC(=O)[C@H](Cc2ccc(O)cc2)NC(=O)[C@@H](NC(=O)[C@H](N)Cc2ccc3ccccc3c2)CSSC[C@@H](C(=O)N[C@H](C(N)=O)[C@@H](C)O)NC1=O [LANREOTIDE],approximately 90%,one-half to two-thirds,,,,,,,,,,
pegvisomant,,,improves insulin sensitivity as compared to somatostatin analogues,35,approximately 20 mg,75%-95%,> 90,40,7,does not prevent tumor growth in some patients,do not indicate that pegvisomant increases mean tumor size,less than one-third
C[C@@H](O)[C@@H]1NC(=O)[C@H](CCCCN)NC(=O)[C@@H](Cc2c[nH]c3ccccc23)NC(=O)[C@H](Cc2ccccc2)NC(=O)[C@@H](NC(=O)[C@H](N)Cc2ccccc2)CSSC[C@@H](C(=O)N[C@H](CO)[C@@H](C)O)NC1=O [OCTREOTIDE],approximately 90%,one-half to two-thirds,,,,,,,,,,
